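Exposure lasted 48 hours, with cells grown in 96-well plates and compounds tested at five concentrations. GI50: concentration for 50% inhibition of growth. TGI marks complete inhibition of growth.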

What all share (assay): NCI tumour cell line growth inhibition, 48 h
For experiment [1], the system named is CAKI-1 renal.
The subject of experiment [2] is CCRF-CEM leukemia.
Experiment [3] relates to COLO 205 colon.
The subject of experiment [4] is HCT-116 colon.
Experiment [5] relates to NCI-H522 lung.
The test system of experiment [6] is SK-MEL-2 melanoma.
In experiment [7] the test system is SK-MEL-28 melanoma.
Experiment [8] deals with SK-MEL-5 melanoma.
The subject of experiment [9] is SK-OV-3 ovarian.
Experiment [10] concerns MDA-MB-231 breast.

As to `CC(C)(C)C(=CS(=O)/N=C/c1ccccc1)C(C)(C)C` (configuration not stated), the TGI in experiment [1] is > 100 µM; in experiment [2], 49.8 µM; in experiment [3] it was > 100 µM; in experiment [4], > 100 µM; in experiment [5] it was 63.2 µM; in experiment [6], 34.4 µM. The values for the TGI in experiment [7], in experiment [8] and in experiment [9] were > 100 µM, 73 µM and 69.8 µM, respectively.

Turning to `CCCC(=O)N[C@H]1C2C3CC4C5CC(C42)C1(C)C53` (some centres not stated), the TGI in experiment [1], in [2], in experiment [3], in experiment [4], in [5] and in experiment [6] was > 100 µM each time. The TGI in experiment [7], in experiment [8] and in experiment [9] was > 100 µM in each case.

For the compound `CC(C)CCCC(C)[C@H]1CCC2[C@@H]3CCC4Nc5c(cnn5-c5ccccc5)C[C@]4(C)C3CC[C@@]21C` (some centres not stated), the TGI in [1] is 78.4 µM; in experiment [2], > 100 µM; in [3] it was 42 µM; in [4], > 100 µM; in experiment [5] it was > 100 µM; in [6] it was > 100 µM. In addition, the TGI in experiment [8] and in [9] was > 100 µM in each case.

On to `COC(=O)C1=C(C(=O)OC)C2(C)C=CC1O2` (configuration not stated), for which the TGI in experiment [3] came to 32.6 µM; in experiment [4] it was 22.3 µM; in experiment [10] it was 31 µM; in [5] it was 5.56 µM; in experiment [6] it was 43.8 µM; in experiment [7], 29.5 µM. Also, the TGI in experiment [8] was 32.8 µM; in experiment [9] it was > 100 µM.

For `C[Si](C)(C)/C=C\CCO`, the TGI in [2], in [3], in [4], in [5], in experiment [6] and in experiment [7] was > 100 µM in each case. Besides, the TGI in experiment [8] and in [9] was > 100 µM each time.

On to `CC(=O)O[C@]1(C)OC(=O)[C@@H](CC(C)C)N1[N+](=O)[O-]`, for which the TGI in [2], in [3], in [4], in [5], in experiment [6] and in experiment [7] was > 100 µM each time. Also, the TGI in experiment [8] and in [9] was > 100 µM each time.

In the case of `CC(=O)[O-].[Mn+3].[O-]c1ccccc1C=NCCNCCN=Cc1ccccc1[O-]`, the GI50 is 86.1 µM in experiment [2]; > 100 µM in experiment [4]; 66 µM in experiment [5]; > 100 µM in [6]; > 100 µM in [7]; > 100 µM in [8]. Besides, in [9], the GI50 was > 100 µM. The TGI in experiment [2], in experiment [4], in [5], in experiment [6], in experiment [7] and in [8] was > 100 µM in each case. In experiment [9], the TGI is > 100 µM.

Regarding `O=c1ncccn1C1OC(CO)C(O)C1O` (configuration not stated), the TGI in [1], in [2], in experiment [3], in experiment [4], in [5] and in [6] was > 100 µM throughout. For the same compound, the TGI in [7] and in [9] was > 100 µM in each case.

As to `CN1CCc2c1nc(-c1ccc(Cl)cc1)c1c2N(C)CC1`, the TGI in [1] was 29.9 µM; in [2] it was 55.2 µM; in experiment [3] it was 21.1 µM; in experiment [4] it was 18.9 µM; in experiment [6], > 100 µM; in experiment [8], 26.6 µM. In addition, the TGI in experiment [9] was determined as 59.8 µM.

Turning to `CC(=O)OCC(=O)[C@@]12OC(C)(C)O[C@@H]1C[C@H]1[C@@H]3CC(C=O)=C4C=C(OCCCl)CC[C@]4(C)[C@@]3(F)[C@@H](O)C[C@@]12C`, the TGI in experiment [2] was > 100 µM; in [3] it was 34.9 µM; in experiment [4], 27.4 µM; in experiment [5], 92 µM; in experiment [6], 58.6 µM; in [7], 80.1 µM. Besides, the TGI in [9] was > 100 µM.

As to `NNC(=O)C(=O)N/N=C1\CCC(=O)CC1C(=O)CCC(=O)Nc1ccc(Cl)cc1` (configuration not stated), the TGI in experiment [1], in experiment [2], in experiment [3], in experiment [4], in experiment [6] and in experiment [7] was > 100 µM in each case. Besides, the TGI in experiment [8] and in experiment [9] was > 100 µM each time.

For `N.N.N.N.N.O=[N+]([O-])[O-].[Co+3].[O-][Cl+3]([O-])([O-])[O-]`, the GI50 in experiment [2], in experiment [3], in [4], in experiment [5], in [6] and in experiment [7] was > 100 µM throughout. The GI50 in [8] and in experiment [9] was > 100 µM each time. The TGI in experiment [2], in experiment [3], in experiment [4], in experiment [5], in experiment [6] and in experiment [7] was > 100 µM each time. Further, the TGI in [8] and in experiment [9] was > 100 µM each time.

As to `C[C@]12CC[C@H](O)CC1=CC[C@@H]1C2CC[C@]2(C)Nc3c(cnn3-c3ccccc3)CC12` (some centres not stated), the TGI in experiment [1] came to 24.8 µM; in [2], 10.8 µM; in [4], 12.2 µM; in experiment [6], 48.2 µM; in experiment [7], 18.7 µM; in experiment [8] it was 12.4 µM. Also, the TGI in experiment [9] turned out to be 20.7 µM.

Turning to `N/N=C1\C(=O)N(c2ccc(Cl)cc2Cl)C(=O)C(=O)C1c1nc2ccccc2o1` (configuration not stated), the TGI in experiment [1], in experiment [2], in experiment [3], in experiment [4], in experiment [5] and in [6] was > 100 µM each time. Further, the TGI in experiment [7], in experiment [8] and in experiment [9] was > 100 µM throughout.

On to `CC(C)OP(=O)(OC(C)C)/C(N)=N/Nc1ccc([N+](=O)[O-])cc1`, for which the TGI in experiment [1], in experiment [2], in experiment [3], in [4], in experiment [5] and in [6] was > 100 µM throughout. Further, the TGI in [7] and in experiment [8] was > 100 µM throughout.

For `C#Cc1c(C)c(/C=C/C(C)=C/C(=O)OC)n(C)c1C`, the TGI in experiment [1], in [2], in experiment [3], in experiment [4], in [5] and in experiment [9] was > 100 µM in each case.

For the compound `Cc1ccc(S(=O)(=O)c2ccccc2[N+](=O)[O-])cc1`, the TGI in experiment [1], in experiment [2], in [4], in [6], in experiment [7] and in [8] was > 100 µM throughout. Moreover, in experiment [9], the TGI was > 100 µM.

Consider `O=C(O)CCNCCCCNCCC(=O)O`, for which the TGI in experiment [1], in experiment [2], in experiment [3], in [4], in [5] and in experiment [6] was > 100 µM each time. The TGI in experiment [7], in [8] and in experiment [9] was > 100 µM each time.

Regarding `C=CCO/N=C(\OC(=O)c1ccc([N+](=O)[O-])cc1)c1ccccc1`, the TGI in [1], in [2], in [3], in experiment [6], in experiment [7] and in experiment [8] was > 100 µM in each case. Further, the TGI in [9] was > 100 µM.

On to `COc1ccc(C(=O)C(CC2C(=O)NC(=O)NC2=O)c2ccc(OC)cc2)cc1` (configuration not stated), for which the TGI in experiment [1], in [2], in experiment [3], in [4], in experiment [5] and in experiment [6] was > 100 µM throughout. Besides, the TGI in [7], in [8] and in [9] was > 100 µM throughout.

On to `c1ccc2c(c1)oc1ccc3nsnc3c12`, for which the TGI in experiment [1], in [2], in experiment [3], in experiment [4], in experiment [5] and in [6] was > 100 µM throughout. The TGI in experiment [7], in [8] and in experiment [9] was > 100 µM in each case.

`C=CCC1=C(C)C[C@@H]2CCC(=O)C=C12`: the TGI in experiment [1], in [2], in experiment [3], in experiment [4], in experiment [5] and in experiment [6] was > 100 µM throughout. Further, the TGI in experiment [7], in experiment [8] and in experiment [9] was > 100 µM each time.

In the case of `COC(=O)c1c2c(cc3c1CC1(Cc4cc5c(c(C(C)=O)c4C1)CCC5)C3)CCC2` (configuration not stated), the TGI in experiment [1], in experiment [2], in experiment [3], in [4], in experiment [5] and in [7] was > 100 µM each time. Further, the TGI in [8] is > 100 µM.

Turning to `Cc1cc(N(CCC#N)CCC#N)ccc1N=Nc1ccc(Br)cc1`, the TGI is > 51.4 µM in experiment [1]; > 31.6 µM in experiment [2]; > 100 µM in experiment [3]; > 100 µM in experiment [4]; 59.8 µM in experiment [5]; 48.9 µM in experiment [6]. The TGI in experiment [7] was > 100 µM; in [8] it was 27.8 µM; in experiment [9] it was 11.7 µM.

As for `Cc1cccc(C)c1NC(=O)CCc1nc(=S)[nH][nH]1`, the TGI in [1], in [2], in experiment [3], in experiment [4], in [5] and in experiment [6] was > 100 µM each time. Moreover, the TGI in experiment [7] and in experiment [9] was > 100 µM in each case.

As to `CC1=NN(C(=O)c2ccc(Cl)cc2)C(=O)/C1=C/c1ccccc1O`, the TGI in experiment [1], in experiment [2], in experiment [3], in [4], in experiment [5] and in experiment [6] was > 100 µM in each case. The TGI in experiment [7], in [8] and in [9] was > 100 µM throughout.

`CCOC(=O)N1CCc2cc(OC)c(OC)cc2/C1=C\c1ccc(OC)c(OC)c1`: the TGI in [2] was 72 µM; in experiment [3], 59.9 µM; in experiment [4], 40.4 µM; in experiment [5], 77.6 µM; in experiment [6] it was 67.6 µM; in [7] it was > 100 µM. Moreover, the TGI in experiment [9] is > 100 µM.

As to `COC(=O)CC(NC(=O)OCc1ccccc1)C(C(=O)OCc1ccccc1)C(C)(OC)OC` (configuration not stated), the TGI in experiment [2] was 65.4 µM; in experiment [3] it was 34.1 µM; in [4], > 100 µM; in experiment [6] it was 36.5 µM; in experiment [7] it was > 100 µM; in experiment [8], 26.7 µM.

For `O=C1C=CC(=O)c2c(O)c(NCCOCCO)c(Cl)c(O)c21`, the TGI was 39.6 µM in [1]; 4.8 µM in experiment [3]; 8.32 µM in experiment [4]; 3.69 µM in experiment [5]; 21.7 µM in [6]; 4.47 µM in experiment [8]. Further, the TGI in experiment [9] is 31.1 µM.

With `CC1CCSC(N(C(=O)N(C)c2ccccc2)c2ccccc2)=N1` (configuration not stated), the TGI in experiment [1], in [2], in experiment [3], in experiment [4], in experiment [5] and in experiment [6] was > 100 µM in each case. The TGI in experiment [7], in experiment [8] and in experiment [9] was > 100 µM throughout.

For the origin of these results see PubChem BioAssay (NCI).
